Measurements from patent US20220162191A1, “SMALL MOLECULE MODULATORS OF IL-17” (LEO PHARMA A/S, priority 2019, published 2022).

Target: T1, human IL-17AA (Homo sapiens, UniProt Q16552)
T1 construct: host or cells: HEK (human embryonic kidney) cells
T1 sequence (Q16552 24-155) 1: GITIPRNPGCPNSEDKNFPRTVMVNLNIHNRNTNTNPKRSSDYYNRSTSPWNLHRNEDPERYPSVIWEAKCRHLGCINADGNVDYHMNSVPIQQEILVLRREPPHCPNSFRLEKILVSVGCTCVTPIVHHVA
T1 sequence (Q16552 24-155) 2: T1 sequence (Q16552 24-155) 1
Test: IL-8 release assay in human epithelial keratinocytes adult (HEKa)
Type: cell-based
Settings: 3 ng/ml human IL-17AA + 10 ng/ml human TNFalpha, 68-72 h, IL-8 by HTRF, read-out: Rel EC50 L-8 release assay
Summary of the method: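 IL-8 secretion, quantified by HTRF (665/620 nm) as percent of controls, served as the readout after 68–72 h culture of HEKa cells with compound plus IL-17AA (3 ng/ml final) and TNF-alpha (10 ng/ml final). Four-parameter logistic curves gave relative IC50 and Emax.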

SMILES	EC50 [µM]
Cn1cnnc1-c1ccc(NC(=O)C(Cc2cc(-c3cccc(C4(O)CCC4)c3)ccc2Cl)NC(=O)c2ccnn2C)cc1 (stereo not drawn) [Example 144, N-[1-[[2-chloro-5-[3-(1-hydroxycyclobutyl)phenyl]phenyl]methyl]-2-[4-(4-methyl-1,2,4-triazol-3-yl)anilino]-2-oxo-ethyl]-2-methyl-pyrazole-3-carboxamide]	0.1 to 1
Cn1cnnc1-c1ccc(NC(=O)C(Cc2cc(-c3cccc(OC4CCC4)c3)ccc2Cl)NC(=O)c2ccnn2C)cc1 (stereo not drawn) [Example 145, N-[1-[[2-chloro-5-[3-(cyclobutoxy)phenyl]phenyl]methyl]-2-[4-(4-methyl-1,2,4-triazol-3-yl)anilino]-2-oxo-ethyl]-2-methyl-pyrazole-3-carboxamide]	0.1 to 1
Cn1cncc1-c1ccc(NC(=O)C(Cc2cc(-c3ccnc(N4CCCC4)c3)ccc2Cl)NC(=O)c2ccnn2C)cc1 (stereo not drawn) [Example 146, N-[1-[[2-chloro-5-(2-pyrrolidin-1-yl-4-pyridyl)phenyl]methyl]-2-[4-(3-methylimidazol-4-yl)anilino]-2-oxo-ethyl]-2-methyl-pyrazole-3-carboxamide]	0.1 to 1
CC(C)n1cc(-c2ccc(Cl)c(C[C@H](NC(=O)C3(F)CCC3)C(=O)Nc3ccc(-c4cncn4C)cc3)c2)ccc1=O [Example 147, N-[(1S)-1-[[2-chloro-5-(1-isopropyl-6-oxo-3-pyridyl)phenyl]methyl]-2-[4-(3-methylimidazol-4-yl)anilino]-2-oxo-ethyl]-1-fluoro-cyclobutanecarboxamide]	0.1 to 1
CC(C)n1cc(-c2ccc(Cl)c(C[C@H](NC(=O)C3(F)CCC3)C(=O)Nc3ccc(-c4nncn4C)cc3)c2)ccc1=O [Example 148, N-[(1S)-1-[[2-chloro-5-(1-isopropyl-6-oxo-3-pyridyl)phenyl]methyl]-2-[4-(4-methyl-1,2,4-triazol-3-yl)anilino]-2-oxo-ethyl]-1-fluoro-cyclobutanecarboxamide]	> 1
Cn1cncc1-c1ccc(NC(=O)C(Cc2cc(-c3ccnc(N4CCC4)c3)ccc2Cl)NC(=O)c2ccnn2C)cc1 (stereo not drawn) [Example 149, N-[1-[[5-[2-(azetidin-1-yl)-4-pyridyl]-2-chloro-phenyl]methyl]-2-[4-(3-methylimidazol-4-yl)anilino]-2-oxo-ethyl]-2-methyl-pyrazole-3-carboxamide]	0.1 to 1
CN(c1cc(-c2ccc(Cl)c(CC(NC(=O)c3ccnn3C)C(=O)Nc3ccc(-c4cncn4C)cc3)c2)ccn1)C1CC1 (stereo not drawn) [Example 150, N-[1-[[2-chloro-5-[2-[cyclopropyl(methyl)amino]-4-pyridyl]phenyl]methyl]-2-[4-(3-methylimidazol-4-yl)anilino]-2-oxo-ethyl]-2-methyl-pyrazole-3-carboxamide]	< 0.1
Cn1cncc1-c1ccc(NC(=O)C(Cc2cc(-c3ccnc(OCC(F)(F)F)c3)ccc2Cl)NC(=O)c2ccnn2C)cc1 (stereo not drawn) [Example 152, N-[1-[[2-chloro-5-[2-(2,2,2-trifluoroethoxy)-4-pyridyl]phenyl]methyl]-2-[4-(3-methylimidazol-4-yl)anilino]-2-oxo-ethyl]-2-methyl-pyrazole-3-carboxamide]	0.1 to 1
CN(CC1CC1)c1cc(-c2ccc(Cl)c(CC(NC(=O)c3ccnn3C)C(=O)Nc3ccc(-c4cncn4C)cc3)c2)ccn1 (stereo not drawn) [Example 153, N-[1-[[2-chloro-5-[2-[cyclopropylmethyl(methyl)amino]-4-pyridyl]phenyl]methyl]-2-[4-(3-methylimidazol-4-yl)anilino]-2-oxo-ethyl]-2-methyl-pyrazole-3-carboxamide]	< 0.1
CC(C)n1cc(-c2ccc(Cl)c(C[C@H](NC(=O)C3CC3(C)C)C(=O)Nc3ccc(-c4nncn4C)cc3)c2)ccc1=O (stereo partly drawn) [Example 154, N-[(1S)-1-[[2-chloro-5-(1-isopropyl-6-oxo-3-pyridyl)phenyl]methyl]-2-[4-(4-methyl-1,2,4-triazol-3-yl)anilino]-2-oxo-ethyl]-2,2-dimethyl-cyclopropanecarboxamide]	> 1
COCOc1ccc(-c2ccc(Cl)c(CC(NC(=O)c3ccnn3C)C(=O)Nc3ccc(-c4nncn4C)cc3)c2)cc1C(=O)N(C)C (stereo not drawn) [Example 155, N-[1-[[2-chloro-5-[3-(dimethylcarbamoyl)-4-(methoxymethoxy)phenyl]phenyl]methyl]-2-[4-(4-methyl-1,2,4-triazol-3-yl)anilino]-2-oxo-ethyl]-2-methyl-pyrazole-3-carboxamide]	> 1
COCOc1ccc(-c2ccc(Cl)c(CC(NC(=O)c3ccnn3C)C(=O)Nc3ccc(-c4nncn4C)cc3)c2)cc1C(=O)N1CCC1 (stereo not drawn) [Example 156, N-[1-[[5-[3-(azetidine-1-carbonyl)-4-(methoxymethoxy)phenyl]-2-chloro-phenyl]methyl]-2-[4-(4-methyl-1,2,4-triazol-3-yl)anilino]-2-oxo-ethyl]-2-methyl-pyrazole-3-carboxamide]	> 1
Cn1cnnc1-c1ccc(NC(=O)C(Cc2cc(-c3ccc(O)c(CN4CCNCC4)c3)ccc2Cl)NC(=O)c2ccnn2C)cc1 (stereo not drawn) [Example 157, N-[1-[[2-chloro-5-[4-hydroxy-3-(piperazin-1-ylmethyl)phenyl]phenyl]methyl]-2-[4-(4-methyl-1,2,4-triazol-3-yl)anilino]-2-oxo-ethyl]-2-methyl-pyrazole-3-carboxamide]	0.1 to 1
Cn1cncc1-c1ccc(NC(=O)C(Cc2cc(-c3ccnc(OC4CCC4)c3)ccc2Cl)NC(=O)c2ccnn2C)cc1 (stereo not drawn) [Example 158, N-[1-[[2-chloro-5-[2-(cyclobutoxy)-4-pyridyl]phenyl]methyl]-2-[4-(3-methylimidazol-4-yl)anilino]-2-oxo-ethyl]-2-methyl-pyrazole-3-carboxamide]	0.1 to 1
CC(C)N(C)c1cc(-c2ccc(Cl)c(CC(NC(=O)c3ccnn3C)C(=O)Nc3ccc(-c4cncn4C)cc3)c2)ccn1 (stereo not drawn) [Example 159, N-[1-[[2-chloro-5-[2-[isopropyl(methyl)amino]-4-pyridyl]phenyl]methyl]-2-[4-(3-methylimidazol-4-yl)anilino]-2-oxo-ethyl]-2-methyl-pyrazole-3-carboxamide]	< 0.1
Cn1cncc1-c1ccc(NC(=O)C(Cc2cc(-c3ccnc(N4CCCCC4)c3)ccc2Cl)NC(=O)c2ccnn2C)cc1 (stereo not drawn) [Example 160, N-[1-[[2-chloro-5-[2-(1-piperidyl)-4-pyridyl]phenyl]methyl]-2-[4-(3-methylimidazol-4-yl)anilino]-2-oxo-ethyl]-2-methyl-pyrazole-3-carboxamide]	0.1 to 1

Second part, the compound after the results:

EC50 [µM]	SMILES
0.1 to 1	Cn1cncc1-c1ccc(NC(=O)C(Cc2cc(-c3ccnc(OC(F)F)c3)ccc2Cl)NC(=O)c2ccnn2C)cc1 (stereo not drawn) [Example 161, N-[1-[[2-chloro-5-[2-(difluoromethoxy)-4-pyridyl]phenyl]methyl]-2-[4-(3-methylimidazol-4-yl)anilino]-2-oxo-ethyl]-2-methyl-pyrazole-3-carboxamide]
0.1 to 1	CN(C)c1cc(-c2ccc(Cl)c(CC(NC(=O)c3ccnn3C)C(=O)Nc3ccc(-c4cncn4C)cc3)c2)ccn1 (stereo not drawn) [Example 162, N-[1-[[2-chloro-5-[2-(dimethylamino)-4-pyridyl]phenyl]methyl]-2-[4-(3-methylimidazol-4-yl)anilino]-2-oxo-ethyl]-2-methyl-pyrazole-3-carboxamide]
> 1	CC(C)n1cc(-c2ccc(Cl)c(CC(NC(=O)c3ccnn3C)C(=O)Nc3ccc(-c4nncn4C)cc3)c2)cc(C(F)(F)F)c1=O (stereo not drawn) [Example 163, N-[1-[[2-chloro-5-[1-isopropyl-6-oxo-5-(trifluoromethyl)-3-pyridyl]phenyl]methyl]-2-[4-(4-methyl-1,2,4-triazol-3-yl)anilino]-2-oxo-ethyl]-2-methyl-pyrazole-3-carboxamide]
0.1 to 1	Cn1cnnc1-c1ccc(NC(=O)C(Cc2cc(-c3cccc(C(C)(C)CO)c3)ccc2Cl)NC(=O)c2ccnn2C)cc1 (stereo not drawn) [Example 164, N-[1-[[2-chloro-5-[3-(2-hydroxy-1,1-dimethyl-ethyl)phenyl]phenyl]methyl]-2-[4-(4-methyl-1,2,4-triazol-3-yl)anilino]-2-oxo-ethyl]-2-methyl-pyrazole-3-carboxamide]
0.1 to 1	Cn1cncc1-c1ccc(NC(=O)C(Cc2cc(-c3ccnc(N4CCOCC4)c3)ccc2Cl)NC(=O)c2ccnn2C)cc1 (stereo not drawn) [Example 165, N-[1-[[2-chloro-5-(2-morpholino-4-pyridyl)phenyl]methyl]-2-[4-(3-methylimidazol-4-yl)anilino]-2-oxo-ethyl]-2-methyl-pyrazole-3-carboxamide]
0.1 to 1	Cn1cncc1-c1ccc(NC(=O)C(Cc2cc(-c3ccnc(OCC4CC4)c3)ccc2Cl)NC(=O)c2ccnn2C)cc1 (stereo not drawn) [Example 166, N-[1-[[2-chloro-5-[2-(cyclopropylmethoxy)-4-pyridyl]phenyl]methyl]-2-[4-(3-methylimidazol-4-yl)anilino]-2-oxo-ethyl]-2-methyl-pyrazole-3-carboxamide]
> 1	CN(C)C(=O)c1cc(-c2ccc(Cl)c(CC(NC(=O)c3ccnn3C)C(=O)Nc3ccc(-c4nncn4C)cc3)c2)ccc1O (stereo not drawn) [Example 167, N-[1-[[2-chloro-5-[3-(dimethylcarbamoyl)-4-hydroxy-phenyl]phenyl]methyl]-2-[4-(4-methyl-1,2,4-triazol-3-yl)anilino]-2-oxo-ethyl]-2-methyl-pyrazole-3-carboxamide]
0.1 to 1	Cn1cnnc1-c1ccc(NC(=O)C(Cc2cc(-c3ccc(O)c(CN4CCC4)c3)ccc2Cl)NC(=O)c2ccnn2C)cc1 (stereo not drawn) [Example 168, N-[1-[[5-[3-(azetidin-1-ylmethyl)-4-hydroxy-phenyl]-2-chloro-phenyl]methyl]-2-[4-(4-methyl-1,2,4-triazol-3-yl)anilino]-2-oxo-ethyl]-2-methyl-pyrazole-3-carboxamide]
